Results from patent publication US10538516B2, “Oxadiazole derivative and pharmaceutical containing same” (National Center for Geriatrics and Gerontology, priority 2015, dated 2020).

molecular target: T1, GAβ-dependent amyloid fibril formation (Human Aβ1-40 + GM1-containing liposome) (Homo sapiens, UniProt P05067); assay: Thioflavin T (ThT) assay of GAβ-dependent amyloid fibril formation (Aβ1-40 with GM1-containing liposome); assay type: biochemical; conditions: @25 μM; read-out: ThT Inhibitory activity (% inhibition)
T1 construct: Human Aβ1-40 (cat. #4307-v, prepared by Peptide Institute); purchased Peptide Institute 4307-v
T1 sequence (P05067 672-711 limits assumed): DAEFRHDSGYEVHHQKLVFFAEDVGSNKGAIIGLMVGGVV
Outline: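 Human Aβ1-40 (75 μM stock) pre-incubated 10 min at room temperature with compound (75 or 15 μM solution), then GM1-containing cholesterol/sphingomyelin liposome added and incubated 37° C, 18 hours. Fibrils quantified by ThT fluorescence (ex 430/em 490 nm, pH 8.5 glycine buffer); inhibition as ratio to compound-free control.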

Inhibition at 25 µM, 59%:
O=C(N[C@@H](CO)c1nc(-c2cccc(C(F)(F)F)c2)no1)c1ccc(F)c(Cl)c1 [Compound 242, 3-chloro-4-fluoro-N-[(1S)-2-hydroxy-1-{3-[3-(trifluoromethyl)phenyl]-1,2,4-oxadiazol-5-yl}ethyl]benzamide]

Inhibition at 25 µM, 64%:
O=C(N[C@@H](CO)c1nc(-c2ccc(C(F)(F)F)cc2)no1)c1ccc(Cl)cn1 [Compound 239, 5-chloro-N-[(1S)-2-hydroxy-1-{3-[4-(trifluoromethyl)phenyl]-1,2,4-oxadiazol-5-yl}ethyl]pyridine-2-carboxamide]

Inhibition at 25 µM, 63%:
COc1ccc2nc(-c3noc([C@H](CO)NC(=O)c4ccc(F)cc4)n3)sc2c1 [Compound 235, 4-fluoro-N-[(1S)-2-hydroxy-1-[3-(6-methoxy-1,3-benzothiazol-2-yl)-1,2,4-oxadiazol-5-yl]ethyl]benzamide]

Inhibition at 25 µM, 73%:
O=C(N[C@@H](CO)c1nc(-c2csc3ccccc23)no1)c1ccc(F)cc1 [Compound 230, N-[(1S)-1-[3-(1-benzothiophen-3-yl)-1,2,4-oxadiazol-5-yl]-2-hydroxyethyl]-4-fluorobenzamide]

Inhibition at 25 µM, 71%:
O=C(N[C@@H](CO)c1nc(-c2c[nH]c3ncccc23)no1)c1ccc(F)cc1 [Compound 229, 4-fluoro-N-[(1S)-2-hydroxy-1-(3-{1H-pyrrolo[2,3-b]pyridin-3-yl}-1,2,4-oxadiazol-5-yl)ethyl]benzamide]

same assay, conditions: inhibition rate against amyloid fibril formation, final concentration of the compound 25 μM; read-out: Inhibitory activity ABC evaluation

Inhibition at 25 µM, < 40%:
O=C(N[C@@H](CO)c1nc(-c2ccc(Cl)o2)no1)c1ccc(F)cc1 [Compound 228, N-[(1S)-1-[3-(5-chlorofuran-2-yl)-1,2,4-oxadiazol-5-yl]-2-hydroxyethyl]-4-fluorobenzamide]
O=C(N[C@@H](CO)c1nc(-c2ccc(C(F)(F)F)cc2)no1)c1cn2ccccc2n1 [Compound 240, N-[(1S)-2-hydroxy-1-{3-[4-(trifluoromethyl)phenyl]-1,2,4-oxadiazol-5-yl}ethyl]imidazo[1,2-a]pyridine-2-carboxamide]
N[C@@H](Cc1c[nH]c2ccccc12)C(=O)N[C@@H](CO)c1nc(-c2ccc(C(F)(F)F)cc2)no1 [Compound 241, (2S)-2-amino-N-[(1S)-2-hydroxy-1-{3-[4-(trifluoromethyl)phenyl]-1,2,4-oxadiazol-5-yl}ethyl]-3-(1H-indol-3-yl)propanamide]
O=C(N[C@@H](CO)c1nc(-c2cccc(C(F)(F)F)c2)no1)c1c[nH]c2ccccc12 [Compound 243, N-[(1S)-2-hydroxy-1-{3-[3-(trifluoromethyl)phenyl]-1,2,4-oxadiazol-5-yl}ethyl]-1H-indole-3-carboxamide]
O=C(N[C@@H](CO)c1nc(-c2cccc(C(F)(F)F)c2)no1)c1cn2ccccc2n1 [Compound 244, N-[(1S)-2-hydroxy-1-{3-[3-(trifluoromethyl)phenyl]-1,2,4-oxadiazol-5-yl}ethyl]imidazo[1,2-a]pyridine-2-carboxamide]

Inhibition at 25 µM, 40 to 80%:
O=C(N[C@@H](CO)c1nc(-c2ccc3ccccc3n2)no1)c1ccc(F)cc1 [Compound 225, 4-fluoro-N-[(1S)-2-hydroxy-1-[3-(quinolin-2-yl)-1,2,4-oxadiazol-5-yl]ethyl] benzamide]
O=C(N[C@@H](CO)c1nc(-c2nccc3ccccc23)no1)c1ccc(F)cc1 [Compound 226, 4-fluoro-N-[(1S)-2-hydroxy-1-[3-(isoquinolin-1-yl)-1,2,4-oxadiazol-5-yl]ethyl]benzamide]
O=C(N[C@@H](CO)c1nc(-c2csc(Cl)c2)no1)c1ccc(F)cc1 [Compound 227]
O=C(N[C@@H](CO)c1nc(-c2c[nH]c3ncccc23)no1)c1ccc(F)cc1 [Compound 229, 4-fluoro-N-[(1S)-2-hydroxy-1-(3-{1H-pyrrolo[2,3-b]pyridin-3-yl}-1,2,4-oxadiazol-5-yl)ethyl]benzamide]
O=C(N[C@@H](CO)c1nc(-c2csc3ccccc23)no1)c1ccc(F)cc1 [Compound 230, N-[(1S)-1-[3-(1-benzothiophen-3-yl)-1,2,4-oxadiazol-5-yl]-2-hydroxyethyl]-4-fluorobenzamide]
O=C(N[C@@H](CO)c1nc(-c2cc(Cl)sc2Cl)no1)c1ccc(F)cc1 [Compound 231, N-[(1S)-1-[3-(2,5-dichlorothiophen-3-yl)-1,2,4-oxadiazol-5-yl]-2-hydroxyethyl]-4-fluorobenzamide]
O=C(N[C@@H](CO)c1nc(-c2c[nH]c3ccc(Cl)cc23)no1)c1ccc(F)cc1 [Compound 233, N-[(1S)-1-[3-(5-chloro-1H-indol-3-yl)-1,2,4-oxadiazol-5-yl]-2-hydroxyethyl]-4-fluorobenzamide]
O=C(N[C@@H](CO)c1nc(-c2c[nH]c3ccc(F)cc23)no1)c1ccc(F)cc1 [Compound 234]
COc1ccc2nc(-c3noc([C@H](CO)NC(=O)c4ccc(F)cc4)n3)sc2c1 [Compound 235, 4-fluoro-N-[(1S)-2-hydroxy-1-[3-(6-methoxy-1,3-benzothiazol-2-yl)-1,2,4-oxadiazol-5-yl]ethyl]benzamide]
O=C(N[C@@H](CO)c1nc(-c2ccc(C(F)(F)F)cc2)no1)c1ccc2[nH]nnc2c1 [Compound 238, N-[(1S)-2-hydroxy-1-{3-[4-(trifluoromethyl)phenyl]-1,2,4-oxadiazol-5-yl}ethyl]-1H-1,2,3-benzotriazole-5-carboxamide]
O=C(N[C@@H](CO)c1nc(-c2ccc(C(F)(F)F)cc2)no1)c1ccc(Cl)cn1 [Compound 239, 5-chloro-N-[(1S)-2-hydroxy-1-{3-[4-(trifluoromethyl)phenyl]-1,2,4-oxadiazol-5-yl}ethyl]pyridine-2-carboxamide]
O=C(N[C@@H](CO)c1nc(-c2cccc(C(F)(F)F)c2)no1)c1ccc(F)c(Cl)c1 [Compound 242, 3-chloro-4-fluoro-N-[(1S)-2-hydroxy-1-{3-[3-(trifluoromethyl)phenyl]-1,2,4-oxadiazol-5-yl}ethyl]benzamide]
Cn1cc(-c2noc([C@H](CO)NC(=O)c3ccc(F)cc3)n2)c2ccccc21 [Compound 245, 4-fluoro-N-[(1S)-2-hydroxy-1-[3-(1-methyl-1H-3-yl)-1,2,4-oxadiazol-5-yl]ethyl]benzamide]
O=C(N[C@@H](CO)c1nc(-c2ncccn2)no1)c1ccc(F)cc1 [Compound 246, 4-fluoro-N-[(1S)-2-hydroxy-1-[3-(pyrimidin-2-yl)-1,2,4-oxadiazol-5-yl]ethyl]benzamide]
O=C(N[C@@H](CO)c1nc(-c2c[nH]c3ccc(Br)cc23)no1)c1ccc(F)cc1 [Compound 247, N-[(1S)-1-[3-(5-bromo-1H-indol-3-yl)-1,2,4-oxadiazol-5-yl]-2-hydroxyethyl]-4-fluorobenzamide]
O=C(N[C@@H](CO)c1nc(-c2ccc(-c3ccccc3)s2)no1)c1ccc(F)cc1 [Compound 248, 4-fluoro-N-[(1S)-2-hydroxy-1-[3-(5-phenylthiophen-2-yl)-1,2,4-oxadiazol-5-yl]ethyl]benzamide]
O=C(N[C@@H](CO)c1nc(-c2cc(Cl)c(Cl)[nH]2)no1)c1ccc(F)cc1 [Compound 249, N-[(1S)-1-[3-(4,5-dichloro-1H-pyrrol-2-yl)-1,2,4-oxadiazol-5-yl]-2-hydroxyethyl]-4-fluorobenzamide]
O=C(N[C@@H](CO)c1nc(-c2ccc3cc[nH]c3c2)no1)c1ccc(F)cc1 [Compound 250, 4-fluoro-N-[(1S)-2-hydroxy-1-[3-(1H-indol-6-yl)-1,2,4-oxadiazol-5-yl]ethyl]benzamide]
O=C(N[C@@H](CO)c1nc(-c2ccc(Cl)[nH]2)no1)c1ccc(F)cc1 [Compound 251, N-[(1S)-1-[3-(5-chloro-1H-pyrrol-2-yl)-1,2,4-oxadiazol-5-yl]-2-hydroxyethyl]-4-fluorobenzamide]
O=C(N[C@@H](CO)c1nc(-c2c[nH]c3ccc(Cl)cc23)no1)c1ccc(Cl)cc1F [Compound 252, 4-chloro-N-[(1S)-1-[3-(5-chloro-1H-indol-3-yl)-1,2,4-oxadiazol-5-yl]-2-hydroxyethyl]-2-fluorobenzamide]
O=C(N[C@@H](CO)c1nc(-c2c[nH]c3ccc(Cl)cc23)no1)c1ccc(N2CCCC2)cc1 [Compound 253, N-[(1S)-1-[3-(5-chloro-1H-indol-3-yl)-1,2,4-oxadiazol-5-yl]-2-hydroxyethyl]-4-(pyrrolidin-1-yl) benzamide]
O=C(N[C@@H](CO)c1nc(-c2c[nH]c3ccc(Cl)cc23)no1)c1ccc(Cl)cn1 [Compound 254, 5-chloro-N-[(1S)-1-[3-(5-chloro-1H-indol-3-yl)-1,2,4-oxadiazol-5-yl]-2-hydroxyethyl] pyridine-2-carboxamide]
O=C(N[C@@H](CO)c1nc(-c2ccoc2Cl)no1)c1ccc(F)cc1 [Compound 255, N-[(1S)-1-[3-(2-chlorofuran-3-yl)-1,2,4-oxadiazol-5-yl]-2-hydroxyethyl]-4-fluorobenzamide]
O=C(N[C@@H](CO)c1nc(-c2ccc3c(C(=O)C(F)(F)F)c[nH]c3c2)no1)c1ccc(F)cc1 [Compound 256, 4-fluoro-N-[(1S)-2-hydroxy-1-{3-[3-(2,2,2-trifluoroacetyl)-1H-indol-6-yl]-1,2,4-oxadiazol-5-yl}ethyl] benzamide]
Nc1n[nH]cc1-c1noc([C@H](CO)NC(=O)c2ccc(F)cc2)n1 [Compound 257, N-[(1S)-1-[3-(3-amino-1H-pyrazol-4-yl)-1,2,4-oxadiazol-5-yl]-2-hydroxyethyl]-4-fluorobenzamide]
Nc1[nH]cnc1-c1noc([C@H](CO)NC(=O)c2ccc(F)cc2)n1 [Compound 258, N-[(1S)-1-[3-(5-amino-1H-imidazol-4-yl)-1,2,4-oxadiazol-5-yl]-2-hydroxyethyl]-4-fluorobenzamide]
O=C(N[C@@H](CO)c1nc(-c2nc3ccc(O)cc3s2)no1)c1ccc(F)cc1 [Compound 259, 4-fluoro-N-[(1S)-2-hydroxy-1-[3-(6-hydroxy-1,3-benzothiazol-2-yl)-1,2,4-oxadiazol-5-yl]ethyl] benzamide]

Inhibition at 25 µM, > 80%:
O=C(N[C@@H](CO)c1nc(-c2cc3ccccc3s2)no1)c1ccc(F)cc1 [Compound 232, N-[(1S)-1-[3-(1-benzothiophen-2-yl)-1,2,4-oxadiazol-5-yl]-2-hydroxyethyl]-4-fluorobenzamide]
O=C(N[C@@H](CO)c1nc(-c2ccc(C(F)(F)F)cc2)no1)c1ccc(Cl)cc1F [Compound 236, 4-chloro-2-fluoro-N-[(1S)-2-hydroxy-1-{3-[4-(trifluoromethyl)phenyl]-1,2,4-oxadiazol-5-yl}ethyl]benzamide]
